Data reported in PubChem BioAssay AID248 (DTP/NCI, 2004).
Values joined by “and” are separate entries in the source; they are usually repeats but may differ in a detail not shown here. Identical values can stand only once. Inconclusive results and toxic doses are left out.

Test system: L1210 leukemia ip in BDF1 mice, survival T/C
Experiment: NCI In Vivo Anticancer Drug Screen. Data for tumor model L1210 Leukemia (intraperitoneal) in B6D2F1 (BDF1) mice
Conditions: endpoint: mean survival time, higher = longer survival
Outline: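 Read-out is survival time, reported as the treated-group measurement over the vehicle-control measurement.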

[1] = dose: 50.0 mg/kg/injection, schedule: Q01DX001 (ip), vehicle: saline
[2] = dose: 100.0 mg/kg/injection, schedule: Q01DX001 (ip), vehicle: saline
[3] = dose: 300.0 mg/kg/injection, schedule: Q01DX009 (ip), vehicle: saline
[4] = dose: 50.0 mg/kg/injection, schedule: Q01DX009 (ip), vehicle: saline with Tween-80
[5] = dose: 200.0 mg/kg/injection, schedule: Q01DX001 (ip), vehicle: saline
[6] = dose: 200.0 mg/kg/injection, schedule: Q01DX009 (ip), vehicle: saline with Tween-80
[7] = dose: 200.0 mg/kg/injection, schedule: Q04DX003 (ip), vehicle: saline
[8] = dose: 100.0 mg/kg/injection, schedule: Q04DX003 (ip), vehicle: saline with Tween-80
[9] = dose: 200.0 mg/kg/injection, schedule: Q04DX003 (ip), vehicle: saline with Tween-80

CC(=O)N(C)c1ccc(NC(=O)Nc2ccc(F)cc2)cc1
T/C (dose: 100.0 mg/kg/injection, schedule: Q01DX001 (ip), vehicle: carboxymethylcellulose (CMC)): 97 % of control | T/C (dose: 100.0 mg/kg/injection, schedule: Q01DX009 (ip), vehicle: carboxymethylcellulose (CMC)): 95 % of control and 103 % of control | T/C (dose: 100.0 mg/kg/injection, schedule: Q04DX002 (ip), vehicle: carboxymethylcellulose (CMC)): 95 % of control and 97 % of control and 90 % of control | T/C (dose: 100.0 mg/kg/injection, schedule: Q04DX003 (ip), vehicle: carboxymethylcellulose (CMC)): 104 % of control | T/C (dose: 200.0 mg/kg/injection, schedule: Q01DX001 (ip), vehicle: carboxymethylcellulose (CMC)): 96 % of control | T/C (dose: 200.0 mg/kg/injection, schedule: Q01DX009 (ip), vehicle: carboxymethylcellulose (CMC)): 101 % of control and 103 % of control | T/C (dose: 200.0 mg/kg/injection, schedule: Q04DX002 (ip), vehicle: carboxymethylcellulose (CMC)): 93 % of control and 96 % of control and 87 % of control | T/C (dose: 200.0 mg/kg/injection, schedule: Q04DX003 (ip), vehicle: carboxymethylcellulose (CMC)): 107 % of control | T/C (dose: 400.0 mg/kg/injection, schedule: Q01DX001 (ip), vehicle: carboxymethylcellulose (CMC)): 106 % of control | T/C (dose: 400.0 mg/kg/injection, schedule: Q01DX009 (ip), vehicle: carboxymethylcellulose (CMC)): 95 % of control and 101 % of control | T/C (dose: 400.0 mg/kg/injection, schedule: Q04DX002 (ip), vehicle: carboxymethylcellulose (CMC)): 97 % of control and 98 % of control and 104 % of control | T/C (dose: 400.0 mg/kg/injection, schedule: Q04DX003 (ip), vehicle: carboxymethylcellulose (CMC)): 98 % of control

CCOC(=O)C1(C(=O)OCC)CCC(O)N1C(=O)Cc1ccccc1[N+](=O)[O-] (configuration not stated)
T/C (dose: 100.0 mg/kg/injection, schedule: Q04DX003 (ip), vehicle: Klucel (hydroxypropylcellulose) (HPC)): 100 % of control | T/C (dose: 200.0 mg/kg/injection, schedule: Q04DX003 (ip), vehicle: Klucel (hydroxypropylcellulose) (HPC)): 103 % of control | T/C (dose: 400.0 mg/kg/injection, schedule: Q04DX003 (ip), vehicle: Klucel (hydroxypropylcellulose) (HPC)): 99 % of control

CCN(CC)c1ccc(SSc2ccc(N(CC)CC)cc2)cc1
T/C (dose: 25.0 mg/kg/injection, schedule: Q01DX001 (ip), vehicle: saline): 105 % of control | T/C [1]: 100 % of control | T/C [2]: 100 % of control

CS(=O)(=NC(=S)Nc1ccccc1)c1ccccc1 (configuration not stated)
T/C (dose: 75.0 mg/kg/injection, schedule: Q01DX009 (ip), vehicle: saline): 97 % of control | T/C (dose: 150.0 mg/kg/injection, schedule: Q01DX009 (ip), vehicle: saline): 100 % of control | T/C [3]: 100 % of control

CNS(=O)(=O)c1ncnc2nc[nH]c12
T/C (dose: 3.0 mg/kg/injection, schedule: Q01DX Z (ip), vehicle: carboxymethylcellulose (CMC)): 113 % of control | T/C (dose: 6.0 mg/kg/injection, schedule: Q01DX Z (ip), vehicle: carboxymethylcellulose (CMC)): 115 % of control | T/C (dose: 12.0 mg/kg/injection, schedule: Q01DX Z (ip), vehicle: carboxymethylcellulose (CMC)): 119 % of control | T/C (dose: 22.0 mg/kg/injection, schedule: Q01DX Z (ip), vehicle: carboxymethylcellulose (CMC)): 100 % of control | T/C (dose: 25.0 mg/kg/injection, schedule: Q01DX Z (ip), vehicle: carboxymethylcellulose (CMC)): 117 % of control | T/C (dose: 33.0 mg/kg/injection, schedule: Q01DX Z (ip), vehicle: carboxymethylcellulose (CMC)): 100 % of control | T/C [4]: 115 % of control | T/C (dose: 50.0 mg/kg/injection, schedule: Q01DX Z (ip), vehicle: carboxymethylcellulose (CMC)): 121 % of control | T/C (dose: 75.0 mg/kg/injection, schedule: Q01DX Z (ip), vehicle: carboxymethylcellulose (CMC)): 121 % of control | T/C (dose: 100.0 mg/kg/injection, schedule: Q01DX001 (ip), vehicle: acetone): 100 % of control | T/C (dose: 132.0 mg/kg/injection, schedule: Q01DX001 (ip), vehicle: saline): 112 % of control and 88 % of control | T/C (dose: 132.0 mg/kg/injection, schedule: Q01DX009 (ip), vehicle: saline with Tween-80): 112 % of control | T/C (dose: 132.0 mg/kg/injection, schedule: Q01DX009 (ip), vehicle: saline): 110 % of control | T/C (dose: 132.0 mg/kg/injection, schedule: Q04DX003 (ip), vehicle: saline): 121 % of control | T/C (dose: 200.0 mg/kg/injection, schedule: Q01DX001 (ip), vehicle: acetone): 182 % of control | T/C [5]: 103 % of control and 108 % of control | T/C [6]: 162 % of control | T/C [7]: 122 % of control | T/C (dose: 300.0 mg/kg/injection, schedule: Q01DX001 (ip), vehicle: saline): 101 % of control and 103 % of control | T/C [3]: 117 % of control

CC(=O)Oc1ccc(Cl)cc1C=O
T/C [2]: 105 % of control | T/C [5]: 103 % of control

CC(=O)c1cc(C)c(C)s1
T/C (dose: 12.5 mg/kg/injection, schedule: Q01DX009 (ip), vehicle: saline with Tween-80): 107 % of control | T/C (dose: 25.0 mg/kg/injection, schedule: Q01DX009 (ip), vehicle: saline with Tween-80): 110 % of control | T/C [4]: 100 % of control | T/C [8]: 90 % of control | T/C [6]: 86 % of control | T/C [9]: 96 % of control

COc1ccc(C(=S)N(C)c2ccccc2)cc1
T/C (dose: 100.0 mg/kg/injection, schedule: Q04DX003 (ip), vehicle: gum acacia): 96 % of control | T/C (dose: 200.0 mg/kg/injection, schedule: Q04DX003 (ip), vehicle: gum acacia): 93 % of control | T/C (dose: 400.0 mg/kg/injection, schedule: Q04DX003 (ip), vehicle: gum acacia): 95 % of control

CCC(C#N)N1CC1 (configuration not stated)
T/C (dose: 15.0 mg/kg/injection, schedule: Q01DX001 (ip), vehicle: saline): 94 % of control | T/C (dose: 30.0 mg/kg/injection, schedule: Q01DX001 (ip), vehicle: saline): 104 % of control

Cc1cccc(=O)n1Cc1ccccc1
T/C [2]: 104 % of control | T/C (dose: 100.0 mg/kg/injection, schedule: Q01DX009 (ip), vehicle: saline with Tween-80): 97 % of control | T/C [5]: 98 % of control | T/C [6]: 91 % of control | T/C (dose: 400.0 mg/kg/injection, schedule: Q01DX001 (ip), vehicle: saline): 105 % of control | T/C (dose: 400.0 mg/kg/injection, schedule: Q01DX009 (ip), vehicle: saline with Tween-80): 88 % of control

O=C(CCNC(=O)c1ccccc1)Oc1ccccc1
T/C (dose: 100.0 mg/kg/injection, schedule: Q04DX003 (ip), vehicle: saline): 93 % of control | T/C [7]: 95 % of control | T/C (dose: 400.0 mg/kg/injection, schedule: Q04DX003 (ip), vehicle: saline): 92 % of control

CN(C)CCCCl
T/C (dose: 25.0 mg/kg/injection, schedule: Q01DX Z (ip), vehicle: other): 102 % of control | T/C (dose: 50.0 mg/kg/injection, schedule: Q01DX009 (ip), vehicle: saline): 90 % of control | T/C (dose: 50.0 mg/kg/injection, schedule: Q01DX Z (ip), vehicle: other): 102 % of control | T/C (dose: 75.0 mg/kg/injection, schedule: Q04DX003 (ip), vehicle: saline): 101 % of control | T/C (dose: 100.0 mg/kg/injection, schedule: Q01DX Z (ip), vehicle: other): 92 % of control | T/C (dose: 150.0 mg/kg/injection, schedule: Q04DX003 (ip), vehicle: saline): 93 % of control

CC1(C)Cc2cccc(C(=O)CCCN3CCC4(CC3)C(=O)NCN4c3ccccc3)c2O1
T/C (dose: 50.0 mg/kg/injection, schedule: Q01DX001 (ip), vehicle: Klucel (hydroxypropylcellulose) (HPC)): 100 % of control | T/C (dose: 100.0 mg/kg/injection, schedule: Q01DX001 (ip), vehicle: Klucel (hydroxypropylcellulose) (HPC)): 102 % of control | T/C (dose: 200.0 mg/kg/injection, schedule: Q01DX001 (ip), vehicle: Klucel (hydroxypropylcellulose) (HPC)): 93 % of control

Cc1ccc(S(=O)(=O)OC2CCCCC2c2ccccc2C)cc1 (configuration not stated)
T/C (dose: 100.0 mg/kg/injection, schedule: Q01DX001 (ip), vehicle: steriod suspending solution): 105 % of control | T/C (dose: 200.0 mg/kg/injection, schedule: Q01DX001 (ip), vehicle: steriod suspending solution): 112 % of control | T/C (dose: 400.0 mg/kg/injection, schedule: Q01DX001 (ip), vehicle: steriod suspending solution): 98 % of control

CN(C)c1ccc(-c2cccc[n+]2C)cc1
T/C (dose: 1.56 mg/kg/injection, schedule: Q01DX009 (ip), vehicle: saline): 104 % of control | T/C (dose: 3.13 mg/kg/injection, schedule: Q01DX009 (ip), vehicle: saline): 103 % of control | T/C (dose: 6.25 mg/kg/injection, schedule: Q01DX009 (ip), vehicle: saline): 104 % of control

CN(C)C(=S)N=Nc1c(O)[nH]c2ccccc12
T/C (dose: 75.0 mg/kg/injection, schedule: Q01DX001 (ip), vehicle: other): 103 % of control | T/C (dose: 150.0 mg/kg/injection, schedule: Q01DX001 (ip), vehicle: other): 96 % of control | T/C (dose: 300.0 mg/kg/injection, schedule: Q01DX001 (ip), vehicle: other): 105 % of control

Nc1ncnc2c1ncn2C1OCC(O)C1CO (configuration not stated)
T/C [1]: 111 % of control | T/C [2]: 109 % of control | T/C [5]: 105 % of control

COC(=O)C1C=Cc2ccccc21 (configuration not stated)
T/C [8]: 104 % of control | T/C [9]: 93 % of control | T/C (dose: 400.0 mg/kg/injection, schedule: Q04DX003 (ip), vehicle: saline with Tween-80): 102 % of control
